ChEMBL document CHEMBL1134713, “Synthesis of a novel series of cytotoxic bisindole alkaloids” (Bioorg Med Chem Lett, 2001)

Legend:
[1] = tested on: L1210; test: Cytotoxicity against L1210 cell proliferation, measured using microculture tetrazolium assay (MTA); assay type: functional, cell-based, Mus musculus
[2] = tested on: L1210; test: Evaluated for the dose-dependent accumulation and percent of cells in G1 phase was determined at a concentration of 20 uM; assay type: functional, Mus musculus
[3] = tested on: L1210; test: Evaluated for the dose-dependent accumulation and percent of cells in G1 phase was determined at a concentration of 25 uM; assay type: functional, Mus musculus
[4] = tested on: L1210; test: Evaluated for the dose-dependent accumulation and percent of cells in G1 phase was determined at a concentration of 10 uM; assay type: functional, Mus musculus
[5] = tested on: L1210; test: Evaluated for the dose-dependent accumulation and percent of cells in G1 phase was determined at a concentration of 50 uM; assay type: functional, Mus musculus
[6] = tested on: L1210; test: Compound was evaluated for the percent stimulation of cell proliferation at a concentration of 10 uM; assay type: functional, Mus musculus
[7] = tested on: L1210; test: Evaluated for the dose-dependent accumulation and percent of cells in G1 phase was determined at a concentration of 5 uM; assay type: functional, Mus musculus

| Structure (SMILES) | IC50 ([1]; Mus musculus, L1210) [µM] | further results |
| --- | --- | --- |
| CC[C@]12C=C(C(=O)OC)c3c(CC4Nc5ccc(OC)cc5CC4c4c5n(c6ccccc46)[C@H]4N(O)CCC[C@@]4(CC)C=C5C(=O)OC)c4ccccc4n3[C@H]1N(O)CCC2 (some centres not stated) | 2.2 | Cells [2]: 69% |
| CC[C@]12C=C(C(=O)OC)c3c(CC4Nc5ccccc5CC4c4c5n(c6ccccc46)[C@H]4N(O)CCC[C@@]4(CC)C=C5C(=O)OC)c4ccccc4n3[C@H]1N(O)CCC2 (stereo in doubt; 1) |  | IC50 ([1]; l1210): 2.7 µM; Cells [3]: 80% |
| CC[C@]12C=C(C(=O)OC)c3c(CC4Nc5c(Cl)cccc5C(Nc5ccccc5Cl)C4c4c5n(c6ccccc46)[C@H]4N(O)CCC[C@@]4(CC)C=C5C(=O)OC)c4ccccc4n3[C@H]1N(O)CCC2 (some centres not stated) | > 10 |  |
| CC[C@]12C=C(C(=O)OC)c3c(CC4Nc5ccc(Cl)cc5CC4c4c5n(c6ccccc46)[C@H]4N(O)CCC[C@@]4(CC)C=C5C(=O)OC)c4ccccc4n3[C@H]1N(O)CCC2 (some centres not stated) | 3.6 | Cells [4]: 77% |
| CC[C@]12C=C(C(=O)OC)c3c(CCNc4ccc(F)cc4)c4ccccc4n3[C@H]1N(O)CCC2 | 15.4 |  |
| CC[C@]12C=C(C(=O)OC)c3c(CC4Nc5ccc(OC)cc5C(OC)C4c4c5n(c6ccccc46)[C@H]4N(O)CCC[C@@]4(CC)C=C5C(=O)OC)c4ccccc4n3[C@H]1N(O)CCC2 (some centres not stated) | 1.7 | Cells [2]: 81% |
| CC[C@]12C=C(C(=O)OC)c3c(CC4Nc5c(F)cccc5C(Nc5ccccc5F)C4c4c5n(c6ccccc46)[C@H]4N(O)CCC[C@@]4(CC)C=C5C(=O)OC)c4ccccc4n3[C@H]1N(O)CCC2 (some centres not stated) | 14.1 |  |
| CC[C@]12C=C(C(=O)OC)c3c(CC4Nc5ccccc5CC4c4c5n(c6ccccc46)[C@H]4N(O)CCC[C@@]4(CC)C=C5C(=O)OC)c4ccccc4n3[C@H]1N(O)CCC2 (stereo in doubt; 6) |  | IC50 ([1]; l1210): 71 µM; Cells [5]: 4.5% |
| CC[C@]12C=C(C(=O)OC)c3c(CC4Nc5ccc(O)cc5C(OC)C4c4c5n(c6ccccc46)[C@H]4N(O)CCC[C@@]4(CC)C=C5C(=O)OC)c4ccccc4n3[C@H]1N(O)CCC2 (some centres not stated) | 0.9 |  |
| CC[C@]12C=C(C(=O)OC)c3c(CC4Nc5cc(Cl)cc(Cl)c5CC4c4c5n(c6ccccc46)[C@H]4N(O)CCC[C@@]4(CC)C=C5C(=O)OC)c4ccccc4n3[C@H]1N(O)CCC2 (some centres not stated) | > 10 |  |
| CC[C@]12C=C(C(=O)OC)c3c(CC4Nc5ccc(Cl)cc5C(Nc5ccc(Cl)cc5)C4c4c5n(c6ccccc46)[C@H]4N(O)CCC[C@@]4(CC)C=C5C(=O)OC)c4ccccc4n3[C@H]1N(O)CCC2 (some centres not stated) | > 10 | Stimulation [6]: 126% |
| CC[C@]12C=C(C(=O)OC)c3c(CC4Nc5ccc(F)cc5CC4c4c5n(c6ccccc46)[C@H]4N(O)CCC[C@@]4(CC)C=C5C(=O)OC)c4ccccc4n3[C@H]1N(O)CCC2 (some centres not stated) | 1.8 | Cells [7]: 81% |
| CCOC(=O)c1ccc(NC2c3cc(C(=O)OCC)ccc3NC(Cc3c4n(c5ccccc35)[C@H]3N(O)CCC[C@@]3(CC)C=C4C(=O)OC)C2c2c3n(c4ccccc24)[C@H]2N(O)CCC[C@@]2(CC)C=C3C(=O)OC)cc1 (some centres not stated) | > 10 | Stimulation [6]: 118% |
| CC[C@]12C=C(C(=O)OC)c3c(CC4Nc5cc(OC)c(OC)c(OC)c5CC4c4c5n(c6ccccc46)[C@H]4N(O)CCC[C@@]4(CC)C=C5C(=O)OC)c4ccccc4n3[C@H]1N(O)CCC2 (some centres not stated) | 2.4 | Cells [7]: 61% |
| CC[C@]12C=C(C(=O)OC)c3c(CC4Nc5ccc(C(F)(F)F)cc5C(Nc5ccc(C(F)(F)F)cc5)C4c4c5n(c6ccccc46)[C@H]4N(O)CCC[C@@]4(CC)C=C5C(=O)OC)c4ccccc4n3[C@H]1N(O)CCC2 (some centres not stated) | > 10 | Stimulation [6]: 152% |
| CC[C@]12C=C(C(=O)OC)c3c(CC4Nc5cc(Cl)cc(Cl)c5C(Nc5cc(Cl)cc(Cl)c5)C4c4c5n(c6ccccc46)[C@H]4N(O)CCC[C@@]4(CC)C=C5C(=O)OC)c4ccccc4n3[C@H]1N(O)CCC2 (some centres not stated) | > 10 | Stimulation [6]: 156% |
